# Laboratory results: patent US9346852B2, “Substituted adipic acid amides and uses thereof” (Bristol-Myers Scuibb Company, priority 2011, dated 2016)
# Molecular target: T1, human Y4 stable CHO clonal cells (Homo sapiens, UniProt P50391)
# T1 construct: expressed in transfected cells
# Assay: NPY4 cAMP HTRF Agonist Assay
# Type: cell-based
# Settings: inhibitory cAMP assay, Gi activation by Y4 agonism, forskolin and IBMX, 30 minutes at room temperature
# Method: NPY4 cAMP HTRF Agonist Assay
# The functionality of the compound at Y4 receptor was analyzed using an inhibitory cAMP assay (CISBIO, HTRF cAMP kit #62AM4PEC) to measure the Gi activation by Y4 agonism.
# The human Y4 stable CHO clonal cells were maintained in culture medium (F-12 containing 10% Fetal Bovine Serum, […] GENETICIN®, […] Zeocin). Before the experiment, 5 μL of 1 uM Forskolin (Sigma, # F6886) and 100 uM IBMX (Sigma, # I5879) in PBS buffer were added into 384-well plates (PE, Proxi-plate) that were pre-dotted with […] compounds. The cells were removed from the flasks by Cellstripper, counted and adjusted to […] in PBS buffer, and added 5 μL/well (5000 cells/well) into the above 384-well plates. The cells were then covered and incubated for 30 minutes at room temperature. After incubation, 5 μL/well of D2-conjugate in HTRF lysis buffer was first added, followed by adding 5 μL/well of anti-cAMP Cryptate in HTRF lysis buffer. The plates were incubated for another 1 hour at room temperature and read on the EnVision Multilabel Plate Reader.
# Compounds described herein were tested in the above assay.
# T1 sequence (P50391 whole entry): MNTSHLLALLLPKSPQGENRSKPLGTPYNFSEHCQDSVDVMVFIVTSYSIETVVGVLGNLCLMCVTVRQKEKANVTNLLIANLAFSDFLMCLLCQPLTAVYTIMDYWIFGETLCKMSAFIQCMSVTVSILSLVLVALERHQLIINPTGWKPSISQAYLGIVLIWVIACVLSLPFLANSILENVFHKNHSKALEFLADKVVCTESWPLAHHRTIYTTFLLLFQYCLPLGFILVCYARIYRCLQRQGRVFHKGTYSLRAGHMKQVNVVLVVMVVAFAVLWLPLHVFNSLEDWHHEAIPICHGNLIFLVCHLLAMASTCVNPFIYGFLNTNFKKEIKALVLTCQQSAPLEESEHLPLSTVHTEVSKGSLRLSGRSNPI
row,EC50 [nM],SMILES
1,200,"COC(=O)[C@@H]1CCC[C@@H]2CCC[C@H](NC(=O)[C@H](CC[C@H](Cc3ccccc3)C(=O)N[C@H]3CCC[C@H]4CCC[C@@H](C(=O)OC)N4C3=O)Cc3ccccc3)C(=O)N21 [Example 5, Dimethyl (4S,7S,10aS,4′S,7′S,10a′S)-7,7′-(((2R,5R)-2,5-dibenzyl-1,6-dioxo-1,6-hexanediyl)diimino)bis(6-oxodecahydropyrido[1,2-a]azepine-4-carboxylate)]"
2,835,"COC(=O)[C@@H]1CCC[C@@H]2SCC[C@H](NC(=O)[C@H](CC[C@H](CC3CCCCC3)C(=O)N[C@H]3CCS[C@H]4CCC[C@@H](C(=O)OC)N4C3=O)Cc3cccc(Cl)c3)C(=O)N21 [Example 43, Dimethyl (4S,7S,10aS,4′S,7′S,10a′S)-4,4′-(((2R,5R)-2-(3-chlorobenzyl)-5-(cyclohexylmethyl)-1,6-dioxo-1,6-hexanediyl)diimino)bis(5-oxooctahydro-7H-pyrido[2,1-b][1,3]thiazepine-7-carboxylate)]"
3,470,"COC[C@@H]1CCC[C@@H]2SCC[C@H](NC(=O)[C@H](CC[C@H](Cc3ccccc3)C(=O)N[C@H]3CCCCN(c4ccccc4)C3=O)Cc3ccccc3)C(=O)N12 [Example 74, (2R,5R)-2,5-Dibenzyl-N1-((4S,7S,10aS)-7-(methoxymethyl)-5-oxooctahydro-2H-pyrido[2,1-b][1,3]thiazepin-4-yl)-N6-((S)-2-oxo-1-phenylazepan-3-yl)hexanediamide]"
4,24,"COC(=O)[C@@H]1CCC[C@@H]2SCC[C@H](NC(=O)[C@H](CC[C@H](CC#N)C(=O)N[C@H]3CCS[C@H]4CCC[C@@H](C(=O)OC)N4C3=O)Cc3ccccc3)C(=O)N21 [Example 32, Dimethyl (4S,7S,10aS,4′S,7′S,10a′S)-4,4′-(((2R,5R)-2-benzyl-5-(cyanomethyl)-1,6-dioxo-1,6-hexanediyl)diimino)bis(5-oxooctahydro-7H-pyrido[2,1-b][1,3]thiazepine-7-carboxylate)]"
5,55,"N#C[C@@H]1CCC[C@@H]2SCC[C@H](NC(=O)[C@H](CC[C@H](Cc3ccccc3)C(=O)N[C@H]3CCCCN(c4ccccc4)C3=O)Cc3ccccc3)C(=O)N12 [Example 72, (2R,5R)-2,5-Dibenzyl-N1-((4S,7S,10aS)-7-cyano-5-oxooctahydro-2H-pyrido[2,1-b][1,3]thiazepin-4-yl)-N6-((S)-2-oxo-1-phenylazepan-3-yl)hexanediamide]"
6,270,"O=C(N[C@H]1CCCCN(c2ccccc2)C1=O)[C@H](CC[C@H](Cc1ccccc1)C(=O)N[C@H]1CCS[C@H]2CCCCN2C1=O)Cc1ccccc1 [Example 59, (2R,5R)-2,5-Dibenzyl-N1-((S)-2-oxo-1-phenylazepan-3-yl)-N6-((4S,10aS)-5-oxooctahydro-2H-pyrido[2,1-b][1,3]thiazepin-4-yl)hexanediamide]"
7,18,"COc1ccccc1N1CCCC[C@H](NC(=O)[C@H](CC[C@H](Cc2ccccc2)C(=O)N[C@H]2CCS[C@H]3CCC[C@@H](C(F)(F)F)N3C2=O)Cc2ccccc2)C1=O [Example 79, (2R,5R)-2,5-Dibenzyl-N1-((S)-1-(2-methoxyphenyl)-2-oxoazepan-3-yl)-N6-((4S,7S,10aS)-5-oxo-7-(trifluoromethyl)octahydro-2H-pyrido[2,1-b][1,3]thiazepin-4-yl)hexanediamide]"
8,17,"COC(=O)[C@@H]1CCC[C@@H]2SCC[C@H](NC(=O)[C@H](CC[C@H](Cc3ccccc3)C(=O)N[C@H]3CCS[C@H]4CCC[C@@H](C(=O)OC)N4C3=O)Cc3ccccc3)C(=O)N21 [Example 1, Dimethyl (4S,7S,10aS,4′S,7′S,10a′S)-4,4′-(((2R,5R)-2,5-dibenzyl-1,6-dioxo-1,6-hexanediyl)diimino)bis(5-oxooctahydro-7H-pyrido[2,1-b][1,3]thiazepine-7-carboxylate)]"
9,210,CCC[C@@H](CC[C@H](Cc1cccc(F)c1)C(=O)N[C@H]1CCS[C@H]2CCC[C@@H](C(=O)OC)N2C1=O)C(=O)N[C@H]1CCS[C@H]2CCC[C@@H](C(=O)OC)N2C1=O [Example 100]
10,14,"COC(=O)[C@@H]1CCC[C@@H]2SCC[C@H](NC(=O)[C@H](CC[C@H](Cc3ccc(O)cc3)C(=O)N[C@H]3CCS[C@H]4CCC[C@@H](C(=O)OC)N4C3=O)Cc3ccc(O)cc3)C(=O)N21 [Example 9, Dimethyl (4S,7S,10aS,4′S,7′S,10a′S)-4,4′-(((2R,5R)-2,5-bis(4-hydroxybenzyl)-1,6-dioxo-1,6-hexanediyl)diimino)bis(5-oxooctahydro-7H-pyrido[2,1-b][1,3]thiazepine-7-carboxylate)]"
11,155,"COC(=O)[C@@H]1CCCN2CCC[C@H](NC(=O)[C@H](CC[C@H](Cc3ccccc3)C(=O)N[C@H]3CCCN4CCC[C@@H](C(=O)OC)N4C3=O)Cc3ccccc3)C(=O)N12 [Example 18, Dimethyl (1S,9S,1′S,9′S)-9,9′-(((2R,5R)-2,5-dibenzyl-1,6-dioxo-1,6-hexanediyl)diimino)bis(10-oxooctahydro-6H-pyridazino[1,2-a][1,2]diazepine-1-carboxylate)]"
12,7,"COc1ccccc1N1CCCC[C@H](NC(=O)[C@H](CC[C@H](Cc2ccccc2)C(=O)N[C@H]2CCS[C@H]3CCC[C@@H](C#N)N3C2=O)Cc2ccccc2)C1=O [Example 96, (2R,5R)-2,5-Dibenzyl-N1-((4S,7S,10aS)-7-cyano-5-oxooctahydro-2H-pyrido[2,1-b][1,3]thiazepin-4-yl)-N6-((S)-1-(2-methoxyphenyl)-2-oxoazepan-3-yl)hexanediamide]"
13,130,COC(=O)[C@@H]1CCC[C@@H]2SCC[C@H](NC(=O)[C@H](CC[C@H](CC(C)C)C(=O)N[C@H]3CCS[C@H]4CCC[C@@H](C(=O)OC)N4C3=O)Cc3ccccc3)C(=O)N21 [Example 4]
14,60,"COC(=O)[C@@H]1CCC[C@@H]2SCC[C@H](NC(=O)[C@H](CC[C@H](Cc3ccccc3)C(=O)N[C@@H]3C(=O)N4CCC[C@@H]4SC3(C)C)Cc3ccccc3)C(=O)N21 [Example 12, (4S,7S,10aS)-Methyl 4-((2R,5R)-2,5-dibenzyl-6-((3R,8aS)-2,2-dimethyl-4-oxohexahydro-2H-pyrrolo[2,1-b][1,3]thiazin-3-ylamino)-6-oxohexanamido)-5-oxooctahydro-2H-pyrido[2,1-b][1,3]thiazepine-7-carboxylate]"
15,270,"Cc1ccccc1N1CCCC[C@H](NC(=O)[C@H](CC[C@H](Cc2ccccc2)C(=O)N[C@H]2CCS[C@H]3CC[C@@H](C(F)(F)F)CN3C2=O)Cc2ccccc2)C1=O [Example 90, (2R,5R)-2,5-Dibenzyl-N1-((S)-2-oxo-1-o-tolylazepan-3-yl)-N6-((4S,8R,10aS)-5-oxo-8-(trifluoromethyl)octahydro-2H-pyrido[2,1-b][1,3]thiazepin-4-yl)hexanediamide]"
16,5,"COC(=O)[C@@H]1CCC[C@@H]2SCC[C@H](NC(=O)[C@H](CC[C@H](Cc3ccc(O)cc3)C(=O)N[C@H]3CCS[C@H]4CCC[C@@H](C(=O)OC)N4C3=O)Cc3ccccc3)C(=O)N21 [Example 38, Dimethyl (4S,7S,10aS,4′S,7′S,10a′S)-4,4′-(((2R,5R)-2-benzyl-5-(4-hydroxybenzyl)-1,6-dioxo-1,6-hexanediyl)diimino)bis(5-oxooctahydro-7H-pyrido[2,1-b][1,3]thiazepine-7-carboxylate)]"
17,230,"COC(=O)[C@@H]1CCC[C@@H]2SCC[C@H](NC(=O)[C@H](CC[C@H](Cc3ccccc3)C(=O)N[C@H]3CCS[C@H]4CCCCN4C3=O)Cc3ccccc3)C(=O)N21 [Example 30, (4S,7S,10aS)-Methyl 4-((2R,5R)-2,5-dibenzyl-6-oxo-6-((4S,10aS)-5-oxooctahydro-2H-pyrido[2,1-b][1,3]thiazepin-4-ylamino)hexanamido)-5-oxooctahydro-2H-pyrido[2,1-b][1,3]thiazepine-7-carboxylate]"
